The text below walks through data of PMC5418348, “Identification of a Novel Allosteric Inhibitory Site on Tryptophan Hydroxylase 1 Enabling Unprecedented Selectivity Over all Related Hydroxylases” (Frontiers in Pharmacology, 2017).

Entries after “also recorded” stand apart in the source; their conditions may differ. Where two headings read alike, the source gives them in different places.

For series [1], the system named is BON (human pancreatic carcinoid) cell line. Briefly: BON cell assay of D4-5-HT production from deuterated tryptophan. Type of series: cell-based. The settings on record: BON cells; for IC50: read-out: IC50 inhibition of D4-5-HT production. Here is the method:
(§1) 5-HT newly synthesized through TPH activity was assessed both in vitro and in vivo by addition of deuterium labeled substrate (deuterated tryptophan – TRP-d5) and subsequently generated deuterium labeled product (deuterated serotonin – 5HT-d4) (Figure 6A). BON (human pancreatic carcinoid) cell line was a gift from Dr. Courtney M. Townsend (University of Texas, Galveston, TX, USA) and cultured as previously described ([Tran et al., 2004]). Cells were seeded overnight in 96-well plates at 1.2 × 10^5 cells per well in 200 μL growth media containing 1% FBS, and incubated at 37°C, 5% CO2. After 24 h, cell media was exchanged for […] serum-free media. All reagents added to the cells in subsequent steps were diluted in serum-free media. Cells were treated with 25 μL of either compound or DMSO vehicle (1 % v/v) for 15 min at 37°C, 5% CO2 and then treated with 25 μL 196 mM deuterated-tryptophan (Isotec, UK) for a further 2 h at 37°C, 5% CO2. BON cell lysates were then prepared by removal of all media with subsequent addition of […] HTAB. These lysates were further analyzed for D4-5-HT content by LCMS. Cell toxicity was also assessed in BON cells using a standard lactate dehydrogenase (LDH) assay according to instructions.

The next series has as its system BON cells. Briefly: LDH cell toxicity assay in BON cells. Type of series: cell-based, human. The settings on record: Figure 5B. Here is the method: as §1
Another series has as its system TPH1. Also on record: method as in Liu et al., 2008. As to conditions: ref Liu et al., 2008; read-out: TPH1 activity IC50 (literature); cited from earlier work.
The target of another series is T1, Human TPH-1 (Homo sapiens, UniProt P17752).
T1 sequence (P17752 1-444): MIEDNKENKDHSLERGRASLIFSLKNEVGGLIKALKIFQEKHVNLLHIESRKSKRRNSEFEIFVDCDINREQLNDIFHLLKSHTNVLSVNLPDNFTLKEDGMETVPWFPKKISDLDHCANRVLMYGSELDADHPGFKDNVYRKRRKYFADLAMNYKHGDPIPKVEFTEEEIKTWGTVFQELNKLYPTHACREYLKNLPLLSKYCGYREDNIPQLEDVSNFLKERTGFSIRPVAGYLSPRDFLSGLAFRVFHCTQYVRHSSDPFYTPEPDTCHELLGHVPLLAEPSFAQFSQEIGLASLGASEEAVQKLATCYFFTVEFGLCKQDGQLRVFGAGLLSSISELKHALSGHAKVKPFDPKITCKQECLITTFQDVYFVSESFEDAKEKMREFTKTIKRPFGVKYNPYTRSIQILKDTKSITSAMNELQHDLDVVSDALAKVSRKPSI
Nature of the series: In vitro human TPH-1 enzyme activity assay (fluorescence). Format: biochemical. The settings on record: literature ref Liu et al., 2008. Here is the method: Human TPH-1 and Human TPH-2 enzyme assays were carried out at room temperature with atmosphere oxygen in a volume of 25 μL. A base buffer of 40 mM HEPES pH 7.0, 200 mM ammonium sulfate was made and stored at 4°C. On the day of assay, final concentrations of 10 μM iron ammonium sulfate, 0.1 mg mL^-1 BSA, 25 μg mL^-1 catalase, and 0.04% Chaps were added and designated as enzyme buffer. Substrate buffer was made the same way but for the addition of a final concentration of 10 mM DTT. Enzymes were diluted as follows: 1.25x = 12.5 nM TPH1 (Final = 10 nM) or 1.25x = 37.5 nM TPH2 (Final = 30 nM) in enzyme buffer. Substrates were diluted as follows: 5x = 200 μM (6R)-5,6,7,8-Tetrahydrobiopterin dihydrochloride (BH4) (Final = 40 μM) and 5x = 100 μM Tryptophan (Final = 20 μM) in substrate buffer. Compounds were serially diluted 1:1 in DMSO to 50x = 500 μM (Final = 10 μM). Assays were performed in GNF Custom Greiner Black 384-well plates. Compounds were added at 0.5 μL per well. Enzymes were added at 20 μL per well. Compounds and enzymes were pre-incubated 15 min at room temperature. Substrates were added at 5 μL per well to initiate the reaction. The plates were covered and incubated at room temperature: 30 min for TPH1 and 60 min for TPH2. The reactions were quenched with the addition of 25 μL 30% sulfuric acid.

The next series has as its target T2, TPH1 (104–394) (Homo sapiens, UniProt P17752).
T2 construct: His6 (N, cleaved yes); made in house; host or cells: Escherichia coli BL21 Rosetta (DE3)
Nature of the series: Biacore surface plasma resonance binding / competition experiments. As to conditions: SPR, previously estimated, data not shown; read-out: KD toward TPH1. Here is the method:
Biosensor experiments were performed on a Biacore T100 instrument (GE Healthcare). Biotinylation and capture of TPH1 was performed by adding a volume of freshly prepared EZ-link solution (dissolved in water) to an aliquot of TPH1(104–394) in a 2:1 molar ratio and incubated on ice. After 30 min of incubation, the reaction was stopped by the addition of 100 mM of Tris pH7.5. Unreacted biotin was removed by passing the solution over a fast desalting column (Thermo scientific #89849, equilibrated with PBS, 0.5 mM TCEP) three times. Biotinylated protein was aliquoted and kept at -80°C until use. Biotinylated TPH1 (104–394) was immobilized at 22°C on a SA chip surface (GE Healthcare) equilibrated with 10 mM Hepes, 150 mM NaCl, 1 mM TCEP, 0.05% Tween20, 5% glycerol, pH7.6. Approximately 3200RU were immobilized using this procedure. A streptavidin surface served as the reference.
Binding experiments were performed at 20°C using 10 mM Hepes, 150 mM NaCl, 1 mM TCEP, 0.05% Tween20, 5% glycerol, pH7.6, 2% DMSO as running buffer. […] Using a flow rate of […], samples were injected for 120 s and dissociation was monitored for 240 s. […]

Turning to `N[C@@H](Cc1ccc(Cl)cc1)C(=O)O` (racemic) [pCPA, p-chlorophenylalanine], the “IC50 inhibition of D4-5-HT production” value in series [1] is “could not be established; also recorded: not measurable”. Moreover, the 50% inhibitory concentration (IC50) was above 30 µM in series [1] (Figure 5B, 15 min compound then 2 h deuterated tryptophan, n = 3) and 250 µM in the series on TPH1. The same molecule gave an LDH tox in the series with BON cells above 30 µM. On Human TPH-1, the “difference between literature TPH1 IC50 and the values reported here” value is reported as “approximately 50 fold”.
With `C[C@H](O)[C@H](O)C1=Nc2c(nc(N)[nH]c2=O)NC1` [BH2], the equilibrium dissociation constant (Kd) at TPH1 (104–394) is 11 µM.
On the same count and under the same terms, the result for `N[C@@H](Cc1c[nH]c2ccccc12)C(=O)O` [L-Trp] reads 56 µM.
As to `Nc1nc(OC(c2ccc(-c3cccc(F)c3)cc2)C(F)(F)F)cc(-c2ccc(C[C@H](N)C(=O)O)cc2)n1` (stereo partly shown) [LP533401], the IC50 in series [1] is 12.4 µM; in the series on TPH1 it was 0.7 µM. The LDH tox in the series on BON cells was above 30 µM.
